We go through one molecule from patent US12220394B2, “Pharmaceutical composition for prevention or treatment of kidney damage” (National University Corporation Kanazawa University, priority 2018, dated 2025).

The conditions of data set [1]: cited from earlier work.
In data set [2] the test system is macrophages in kidney tissue. Put plainly: F4/80 immunostaining of kidney tissue after renal ischemia reperfusion. The class given is in vivo, C57BL/6J mice. The method, then:
The animals were reared with free access to water and feed under conditions with an SPF environment and 12-hour light-dark cycling. C57BL/6J mice were purchased from Clea Japan, Inc. (Osaka). Male 12- to 16-week-old mice were treated by renal ischemia reperfusion (hereunder also referred to as “I/R”). The renal pedicles were clamped with a non-traumatic clip (Natsume Seisakusho, Tokyo) under pentobarbital anesthesia to elicit ischemia. The clips were released after 40 minutes. The body temperature was kept at 37° C. during treatment. The mice were reared with free access to water (control) or 20 mM D-alanine-containing water, prior to 14 days after IR treatment. On day 10 after IR treatment, the kidney tissues were sampled. After ischemia reperfusion, the kidney tissues harvested on day 10 were fixed with 10% neutral buffered formalin and supplied for immunostaining using F4/80 antibody (Invitrogen, catalog #: MF48,000). F4/80 is a protein expressed specifically by macrophages, and it allows visualization of macrophages in kidney tissue. In the water-administered control group, cells stained with F4/80 were found accumulated in kidney tissue ([…]), but in the D-alanine-administered groups (20 mM and 80 mM) such cellular accumulation was minimal (FIG. 3(A)). The proportion of stained region in each group was measured (FIG. 3(B)).

The subject of data set [3] is fibrotic tissue in kidney. Put plainly: AZAN staining of kidney tissue after renal ischemia reperfusion. In kind it is in vivo, C57BL/6J mice. The method, then:
The animals were reared with free access to water and feed under conditions with an SPF environment and 12-hour light-dark cycling. C57BL/6J mice were purchased from Clea Japan, Inc. (Osaka). Male 12- to 16-week-old mice were treated by renal ischemia reperfusion (hereunder also referred to as “I/R”). The renal pedicles were clamped with a non-traumatic clip (Natsume Seisakusho, Tokyo) under pentobarbital anesthesia to elicit ischemia. The clips were released after 40 minutes. The body temperature was kept at 37° C. during treatment. The mice were reared with free access to water (control) or 20 mM D-alanine-containing water, prior to 14 days after IR treatment. On day 10 after IR treatment, the kidney tissues were sampled. After ischemia reperfusion, the kidney tissues sampled on day 10 were fixed with 10% neutral buffered formalin and provided for AZAN staining. In AZAN staining, fibrotic tissue is stained with aniline blue. […] The proportion of stained region in each group was measured (FIG. 4(B)).

Data set [4] deals with kidney tissue after ischemia reperfusion. Put plainly: PAS staining and ATN score of kidney tissue sections after renal ischemia reperfusion. The class given is in vivo, C57BL/6J mice. The conditions noted are these: 10 days after ischemia reperfusion. On the procedure:
The animals were reared with free access to water and feed under conditions with an SPF environment and 12-hour light-dark cycling. C57BL/6J mice were purchased from Clea Japan, Inc. (Osaka). Male 12- to 16-week-old mice were treated by renal ischemia reperfusion (hereunder also referred to as “I/R”). The renal pedicles were clamped with a non-traumatic clip (Natsume Seisakusho, Tokyo) under pentobarbital anesthesia to elicit ischemia. The clips were released after 40 minutes. The body temperature was kept at 37° C. during treatment. […] On day 10 after IR treatment, the kidney tissues were sampled. After ischemia reperfusion, the kidneys sampled on day 10 were fixed with 10% neutral buffered formalin and embedded in paraffin, and then stained with periodic acid-Schiff (PAS staining). The stained slices were photographed with a bright-field microscope (FIG. 1). Debris stained with PAS (skin boundary) or brush border (skin boundary and cortical region) were quantitatively evaluated in at least 10 different locations. The debris, renal tubular dilation, brush border damage, and renal tubule necrosis were evaluated by ATN score (0: none, 1: mild, 2: moderate, 3: severe). Sample evaluation was carried out blind.

[5] abbreviates: 10 days after ischemia reperfusion, D-alanine group vs water group.
Setting [6] is: D-alanine group compared with water group.

With `C[C@@H](N)C(=O)O` [D-alanine], the “adverse events when used as a food” value in data set [1] (ingestion on the order of 10 g) was “No adverse events have been reported”. Further, the “toxicity via oral administration” value in data set [1] (oral administration) is recorded as “no reported toxicity”. Besides, in data set [2] (setting [5]), the “F4/80 staining intensity of kidney tissue section (accumulation of macrophages and monocytes)” value was “decreased in a dose-dependent manner”. For the same molecule, the “accumulation of cells stained with F4/80 in kidney tissue” value in data set [2] (after ischemia reperfusion, D-alanine 20 mM and 80 mM vs water-administered control) is “minimal”. The “AZAN staining intensity of kidney tissue section (fibrosis)” value in data set [3] (setting [5]) was “decreased in a dose-dependent manner”. The “aniline blue-stained regions (fibrotic tissue) in kidney tissue” value in data set [3] (day 10 after ischemia reperfusion, D-alanine 20 mM and 80 mM vs water-administered control) is “reduced in a dose-dependent manner”. Also, in data set [4] (D-alanine 20 mM and 80 mM in drinking water vs water group), the “PAS staining intensity of kidney tissue section (accumulation of inflammatory cells such as neutrophils and eosinophils)” value is given as “decreased in a dose-dependent manner”. Besides, in data set [4] (setting [6]), the “grade of brush border region in kidney tissue section (ATN score)” value is listed as “improved in a dose-dependent manner”, the “grade of intraluminal debris in kidney tissue section (ATN score)” value is “improved in a dose-dependent manner” and the “grade of necrosis in kidney tissue section (ATN score)” value is given as “improved in a dose-dependent manner”.
